Measured values as given in PubChem BioAssay AID248 (DTP/NCI, 2004).
Toxic doses and inconclusive results are not listed. Rule as the data show it: active = T/C of 150% or more; inactive = T/C below 125%.

System: L1210 leukemia ip in BDF1 mice, survival T/C
Assay: NCI In Vivo Anticancer Drug Screen. Data for tumor model L1210 Leukemia (intraperitoneal) in B6D2F1 (BDF1) mice
Details: endpoint: mean survival time, higher = longer survival
How it was run: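 In this screen, tumor-bearing mice given compound are compared to those given vehicle, and their survival values are reported as a treated-to-control quotient.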

[1] = dose: 400.0 mg/kg/injection, schedule: Q04DX002 (ip), vehicle: saline with Tween-80
[2] = dose: 100.0 mg/kg/injection, schedule: Q04DX003 (ip), vehicle: Klucel (hydroxypropylcellulose) (HPC)
[3] = dose: 200.0 mg/kg/injection, schedule: Q04DX003 (ip), vehicle: Klucel (hydroxypropylcellulose) (HPC)
[4] = dose: 25.0 mg/kg/injection, schedule: Q01DX009 (ip), vehicle: Klucel (hydroxypropylcellulose) (HPC)
[5] = dose: 50.0 mg/kg/injection, schedule: Q01DX009 (ip), vehicle: Klucel (hydroxypropylcellulose) (HPC)
[6] = dose: 100.0 mg/kg/injection, schedule: Q01DX009 (ip), vehicle: Klucel (hydroxypropylcellulose) (HPC)
[7] = dose: 100.0 mg/kg/injection, schedule: Q04DX002 (ip), vehicle: Klucel (hydroxypropylcellulose) (HPC)
[8] = dose: 200.0 mg/kg/injection, schedule: Q04DX002 (ip), vehicle: Klucel (hydroxypropylcellulose) (HPC)
[9] = dose: 400.0 mg/kg/injection, schedule: Q04DX002 (ip), vehicle: Klucel (hydroxypropylcellulose) (HPC)
[10] = dose: 200.0 mg/kg/injection, schedule: Q01DX009 (ip), vehicle: Klucel (hydroxypropylcellulose) (HPC)
[11] = dose: 100.0 mg/kg/injection, schedule: Q01DX001 (ip), vehicle: carboxymethylcellulose (CMC)
[12] = dose: 200.0 mg/kg/injection, schedule: Q01DX001 (ip), vehicle: carboxymethylcellulose (CMC)
[13] = dose: 400.0 mg/kg/injection, schedule: Q01DX001 (ip), vehicle: carboxymethylcellulose (CMC)
[14] = dose: 100.0 mg/kg/injection, schedule: Q01DX009 (ip), vehicle: saline with Tween-80
[15] = dose: 200.0 mg/kg/injection, schedule: Q01DX009 (ip), vehicle: saline with Tween-80
[16] = dose: 100.0 mg/kg/injection, schedule: Q04DX003 (ip), vehicle: saline
[17] = dose: 200.0 mg/kg/injection, schedule: Q04DX003 (ip), vehicle: saline
[18] = dose: 100.0 mg/kg/injection, schedule: Q04DX003 (ip), vehicle: saline with Tween-80
[19] = dose: 200.0 mg/kg/injection, schedule: Q04DX003 (ip), vehicle: saline with Tween-80
[20] = dose: 400.0 mg/kg/injection, schedule: Q04DX003 (ip), vehicle: saline with Tween-80
[21] = dose: 400.0 mg/kg/injection, schedule: Q04DX003 (ip), vehicle: saline

Measured: T/C

Cc1ccc(/C(=N\N=C(N)N)C2CC2)cc1
inactive: dose: 15.0 mg/kg/injection, schedule: Q01DX Z (ip), vehicle: methylcellulose (MC) 102 % of control | dose: 30.0 mg/kg/injection, schedule: Q01DX Z (ip), vehicle: methylcellulose (MC) 113 % of control | dose: 60.0 mg/kg/injection, schedule: Q01DX Z (ip), vehicle: methylcellulose (MC) 112 % of control | dose: 120.0 mg/kg/injection, schedule: Q01DX Z (ip), vehicle: methylcellulose (MC) 97 % of control | dose: 120.0 mg/kg/injection, schedule: Q01DX Z (oral), vehicle: methylcellulose (MC) 96 % of control | dose: 240.0 mg/kg/injection, schedule: Q01DX Z (ip), vehicle: methylcellulose (MC) 99 % of control | dose: 240.0 mg/kg/injection, schedule: Q01DX Z (oral), vehicle: methylcellulose (MC) 98 % of control | dose: 480.0 mg/kg/injection, schedule: Q01DX Z (oral), vehicle: methylcellulose (MC) 90 % of control

CC(=O)[O][Sb]([O]C(C)=O)([c]1ccccc1)([c]1ccccc1)[c]1ccccc1
inactive: dose: 100.0 mg/kg/injection, schedule: Q04DX002 (ip), vehicle: saline with Tween-80 96 % of control | dose: 200.0 mg/kg/injection, schedule: Q04DX002 (ip), vehicle: saline with Tween-80 96 % of control | [1] 96 % of control

O=C(Sc1ccccc1)C1OC1(c1ccccc1)c1ccccc1 (stereo not given)
inactive: [2] 97 % of control | [3] 88 % of control

CSc1ccccc1C1CCCCCC1OS(C)(=O)=O (stereo not given)
inactive: dose: 12.5 mg/kg/injection, schedule: Q04DX003 (ip), vehicle: Klucel (hydroxypropylcellulose) (HPC) 109 % of control | [4] 109 % of control | dose: 25.0 mg/kg/injection, schedule: Q04DX003 (ip), vehicle: Klucel (hydroxypropylcellulose) (HPC) 106 % of control | [5] 107 % of control | dose: 50.0 mg/kg/injection, schedule: Q04DX003 (ip), vehicle: Klucel (hydroxypropylcellulose) (HPC) 102 % of control | dose: 100.0 mg/kg/injection, schedule: Q01DX001 (ip), vehicle: Klucel (hydroxypropylcellulose) (HPC) 105 % of control | [6] 102 % of control | [2] 107 % of control

FC(F)(F)c1cccc(NC(=S)NNC(=S)NNc2ccccc2)c1
inactive: [7] 101 % of control | [8] 101 % of control | [9] 101 % of control

CCCCC(CC)COC(=O)/C=C/C(=O)OCC(CC)CCCC (stereo not given)
inactive: [6] 96 % of control | [2] 101 % of control | [10] 107 % of control | [3] 95 % of control | dose: 400.0 mg/kg/injection, schedule: Q01DX009 (ip), vehicle: Klucel (hydroxypropylcellulose) (HPC) 107 % of control | dose: 400.0 mg/kg/injection, schedule: Q04DX003 (ip), vehicle: Klucel (hydroxypropylcellulose) (HPC) 93 % of control

Nc1nc(N)c(N=Nc2ccc(S(=O)(=O)Nc3nccs3)cc2)cc1N=Nc1ccccc1
inactive: [11] 94 % of control | [12] 92 % of control | [13] 105 % of control

N#CC(Nc1ccccc1)c1ccc(Cl)cc1 (stereo not given)
inactive: dose: 50.0 mg/kg/injection, schedule: Q01DX009 (ip), vehicle: saline with Tween-80 101 % of control | [14] 97 % of control | [15] 94 % of control

CC(=O)N(Cl)c1ccc(Cl)cc1Cl
inactive: [7] 100 % of control | [8] 98 % of control | [9] 91 % of control

NC(N)=Nc1ccccc1 (tested in a mixture with another compound)
inactive: [16] 100 % of control | [17] 100 % of control

CCCCSc1nc2ccccc2c(=O)n1-c1ccccc1
inactive: dose: 100.0 mg/kg/injection, schedule: Q01DX001 (ip), vehicle: saline with Tween-80 100 % of control | dose: 200.0 mg/kg/injection, schedule: Q01DX001 (ip), vehicle: saline with Tween-80 103 % of control | dose: 400.0 mg/kg/injection, schedule: Q01DX001 (ip), vehicle: saline with Tween-80 97 % of control

c1ccc(C(c2ccccc2)[Si](c2ccccc2)(c2ccccc2)C(c2ccccc2)c2ccccc2)cc1
inactive: dose: 25.6 mg/kg/injection, schedule: Q04DX002 (ip), vehicle: saline with Tween-80 107 % of control | [5] 90 % of control | dose: 64.0 mg/kg/injection, schedule: Q04DX002 (ip), vehicle: saline with Tween-80 100 % of control | [6] 86 % of control | [18] 94 % of control | dose: 160.0 mg/kg/injection, schedule: Q04DX002 (ip), vehicle: saline with Tween-80 100 % of control | [10] 88 % of control | [19] 96 % of control | [1] 110 % of control | [20] 91 % of control

Cc1ccc([I+]c2ccc(C)c(C)c2C)c(C)c1C
inactive: dose: 2.5 mg/kg/injection, schedule: Q01DX001 (ip), vehicle: acetone 100 % of control | dose: 5.0 mg/kg/injection, schedule: Q01DX001 (ip), vehicle: acetone 102 % of control | dose: 10.0 mg/kg/injection, schedule: Q01DX001 (ip), vehicle: acetone 96 % of control | dose: 22.0 mg/kg/injection, schedule: Q01DX001 (ip), vehicle: acetone 103 % of control

CCCCCO/N=C\c1c2c(O)c3c(O)c(C)c4c(c3c1O)C(=O)C(C)(O/C=C\C(OC)C(C)C(OC(C)=O)C(C)C(O)C(C)C(O)C(C)/C=C\C=C(\C)C(=O)N2)O4 (stereo not given)
inactive: dose: 50.0 mg/kg/injection, schedule: Q04DX003 (ip), vehicle: water 100 % of control | dose: 100.0 mg/kg/injection, schedule: Q04DX003 (ip), vehicle: water 94 % of control | dose: 200.0 mg/kg/injection, schedule: Q04DX003 (ip), vehicle: water 100 % of control | dose: 400.0 mg/kg/injection, schedule: Q04DX003 (ip), vehicle: water 102 % of control

CN(C)C(=O)C(=O)C1C=Cc2ccccc21 (stereo not given)
inactive: [18] 93 % of control | [19] 88 % of control | [20] 102 % of control

CC1CCCCC1=C(C#N)C#N (stereo not given)
inactive: dose: 5.0 mg/kg/injection, schedule: Q01DX001 (ip), vehicle: saline 97 % of control | dose: 10.0 mg/kg/injection, schedule: Q01DX001 (ip), vehicle: saline 121 % of control | dose: 20.0 mg/kg/injection, schedule: Q01DX001 (ip), vehicle: saline 94 % of control | dose: 40.0 mg/kg/injection, schedule: Q01DX001 (ip), vehicle: saline 103 % of control

C#CC(O)(c1ccccc1)c1cc(OC)c(OC)cc1OC (stereo not given)
inactive: [18] 101 % of control | [19] 97 % of control | [20] 94 % of control

O=C(Nc1ccccc1O)/C(Cl)=C/Cl
inactive: [14] 109 % of control | dose: 100.0 mg/kg/injection, schedule: Q04DX003 (ip), vehicle: saline sonified 104 % of control | [15] 102 % of control | dose: 200.0 mg/kg/injection, schedule: Q04DX003 (ip), vehicle: saline sonified 106 % of control | dose: 400.0 mg/kg/injection, schedule: Q01DX009 (ip), vehicle: saline with Tween-80 88 % of control | dose: 400.0 mg/kg/injection, schedule: Q04DX003 (ip), vehicle: saline sonified 106 % of control

COCc1ccc(COC)cc1
inactive: dose: 100.0 mg/kg/injection, schedule: Q01DX009 (ip), vehicle: saline 96 % of control | [16] 103 % of control | dose: 200.0 mg/kg/injection, schedule: Q01DX009 (ip), vehicle: saline 95 % of control | [17] 108 % of control | dose: 400.0 mg/kg/injection, schedule: Q01DX009 (ip), vehicle: saline 98 % of control | [21] 100 % of control

Fc1nc(F)nc(F)n1
inactive: dose: 12.0 mg/kg/injection, schedule: Q01DX009 (ip), vehicle: Klucel (hydroxypropylcellulose) (HPC) 89 % of control | [4] 94 % of control | [5] 112 % of control | [16] 90 % of control | [17] 100 % of control | [21] 102 % of control

O=c1nc2c3ncn(Cc4ccccc4)c3nnn2[nH]1
inactive: [11] 100 % of control | [12] 106 % of control | [13] 100 % of control

N#CCCCOc1cccc([N+](=O)[O-])c1
inactive: [14] 93 % of control | [15] 102 % of control
